We go through one compound from US20240299591A1, “Antimicrobial Peptides and Their Use” (priority 2021, published 2024).

A word on the MIC: it is the smallest concentration in the dilution series that meets the test's criterion for growth inhibition.

One test has as its system A. fumigatus (MFIG001). Briefly: Minimum inhibitory concentration, A. fumigatus. Particulars: 5 × 10^5, 10% Vogel's. The class given is cell-based, Aspergillus fumigatus. The protocol: Aspergillus fumigatus strains were grown on Sabouraud dextrose agar (SAB agar) at 37° C. for 3 days. Conidia were collected in phosphate-buffered saline supplemented with 0.1% tween-20 (PBST) by gently scraping a spatula over the fungal colony surface. The spore solutions were then passed through autoclaved Miracloth to remove any hyphal residues and stored at 4° C. The spores were counted and the concentrations was determined in the same was as described for N. crassa.

The next test deals with C. auris. The class given is cell-based. The protocol: (§1) Candida strains used were grown on SAB agar at 37° C. for 3 days, and the Cryptococcus strain was grown on SAB agar at 37° C. for 6 days. Cells were harvest using sterile inoculation loop by taking a single colony and resuspending in phosphate-buffered saline supplemented with 0.1% tween-20 (PBST). The concentration of cells was then quantified with a haemocytometer. For the determination of the minimum inhibitory concentration, cell density was adjusted to 10^6 cells/mL with 20% liquid Vogel's medium.

In the next test the test system is C. albican. The class given is cell-based. The protocol: as §1
Test [1] relates to C. inconspicua (ATCC 16783). The class given is cell-based. The protocol:
as §1

A further test has as its system C. glabrata (NCPF 3309). The format is cell-based. The protocol:
as §1

In the next test the test system is C. krusei (ATCC 6258). The format is cell-based. The protocol: as §1
The subject of a further test is S. aureus. The format is cell-based, Staphylococcus aureus. The protocol: Bacteria strains used were grown on Lysogeny Broth (LB) agar at 37° C. for 1 day, and were harvest using sterile inoculation loop by taking a single colony and resuspending in PBST. The concentration of cells was quantified using a haemocytometer. For the determination of the minimum inhibitory concentration, cell density was adjusted to 10^8 cells/mL with 20% liquid LB medium.

In the next test the test system is F. oxysporum. Briefly: Minimum inhibitory concentration, F. oxysporum. The class given is cell-based, Fusarium oxysporum. Particulars: 5 × 10^5, 10% Vogel's. The protocol: F. oxysporum was grown in liquid potato dextrose broth (PDB) at 28° C. with shaking (170 rpm) for 5 days. The suspension was filtered through folded Miracloth (4 layers) and centrifuged for 10 min at RT. The supernatant was discard and the pellet was resuspend in 1.5 mL of sterile dH2O and quantified.

For another test, the system named is A. fumigatus. As to the kind of experiment: Live cell imaging of A. fumigatus in co-cultures with A549. The class given is cell-based, Aspergillus fumigatus. Particulars: 2.5 µM, 10 min after addition, 37° C. in RPMI.
The next test relates to Aspergillus fumigatus. The format is cell-based. The protocol:
The assays were performed using Nunc 262162 U96 polystyrene round bottomed clear plates (www.nuncbrand.com).
When testing the peptides against A. fumigatus, peptides at different concentrations were mixed with A. fumigatus conidia to reach a final volume of 100 μL per well. The final conidial concentration was 5×10^5 cells/mL in 10% Vogel's medium. After 24 h of incubation at 37° C. in 96 well plates, fungal growth with the different peptide concentrations was determined by measurement of the optical density at 610 nm in a TriStar LB 941 Multimode Microplate Reader. The IC50 values were determined using four parameter logistic regression formula provided by Sigma Plot 10.0. Values are represented as means±SEM from two independent experiments (n=3).
The IC50 of the fluorescently labelled peptides cannot be accurately determined using the optical density method described in the last section. This is because the fluorophore structures absorbed light at 610 nm which was the wavelength used for the optical density measurements. In order to overcome this, the BacTiter-Glo™ Microbial Cell Viability Assay kit purchased from Promega was used. The BacTiter-Glo™ Reagent relies on the properties of a proprietary thermostable luciferase (Ultra-Glo™ Recombinant Luciferase) and a proprietary formulation for extracting ATP from fungal cells which will generates a ‘glow-type’ luminescent signal. This is produced by the luciferase reaction shown in Scheme 1, which has a signal half-life of over 30 min depending on the experimental conditions. The luminescent signal is proportional to the amount of ATP present, which is directly proportional to the number of living cells in culture.
The IC50 assays for all fluorescently labelled peptides were performed using Greiner CELLSTAR white polystyrene wells flat bottomed 96 well plates. The incubation conditions remained the same for the optical density measurement described in the previous section. Once the incubation procedure was finished, the plate was equilibrated to room temperature. A mixture of BacTiter-Glo™ buffer and substrate was then added to the plate (100 μL per well). The plate was shaken for 5 min and read using the Tristar […] luminometer. Data analysis was performed using Sigma Plot 10.0. All values shown are presented as means±SEM from two independent experiments (n=3).

In brackets after ≈: the same amount, converted by molar mass. Where a SMILES comes first, the peptide text is derived from it.

For the compound `N=C(N)NCCC[C@@H]1NC(=O)CNC(=O)[C@H](Cc2c[nH]c3ccccc23)NC(=O)[C@H](Cc2ccccc2)NC(=O)[C@H](Cc2c[nH]c3ccccc23)NC(=O)[C@@H](Cc2ccccc2)NC(=O)[C@H](CCCCN)NC(=O)[C@H](CCCCN)NC1=O` [MFIGAF001, Cyclo(Arg-Lys-Lys-phe-Trp-Phe-Trp-Gly)] (HELM PEPTIDE1{F.W.G.R.K.K.[dF].W}$PEPTIDE1,PEPTIDE1,1:R1-8:R2$$$V2.0), the MIC in the test on A. fumigatus (MFIG001) is 5 µM (≈ 5.68 µg/mL); against C. auris it was 2 µM (≈ 2.27 µg/mL); in the test on C. albican it was 2 µM (≈ 2.27 µg/mL); in [1] it was 2 µM (≈ 2.27 µg/mL); in the test on C. glabrata (NCPF 3309), 3.9 µM (≈ 4.43 µg/mL); against C. krusei (ATCC 6258), 3.9 µM (≈ 4.43 µg/mL). Besides, the MIC in the test on S. aureus was determined as 15.6 µM (≈ 17.7 µg/mL); in the test on F. oxysporum, 6.25 µM (≈ 7.1 µg/mL). The “Antibacterial activity against Staphylococcus aureus” value in the test on S. aureus is recorded as “Antibacterial activity”. For the same compound, the “Selective labelling of A. fumigatus over A549” value in the test with A. fumigatus was “selectively labels A. fumigatus”. In addition, in the test with Aspergillus fumigatus (24 h), the “IC50 Aspergillus fumigatus” value is 1.4 µg/mL (≈ 1.23 µM). Besides, in the test on Aspergillus fumigatus (Conidia (10% Vogel's), 37° C., 24 h), the “IC99 Aspergillus fumigatus” value is 5.7 mg/L. In addition, the “IC50 value against major pathogenic fungi (in words)” value in the test with Aspergillus fumigatus (various fungi, including Aspergillus fumigatus and Fusarium oxysporum) is reported as “sub-micromolar”.
